In ChEMBL document CHEMBL1909046, “DrugMatrix in vitro pharmacology data”:
pIC50: −log10 of the molar value.

Tests used:
Adenosine receptor A2a = Adenosine receptor A2a (Homo sapiens, UniProt P29274); experiment: DRUGMATRIX: Adenosine A2A radioligand binding (ligand: […]); assay type: cell membranes, HEK293, Membrane; conditions: hek293; Not Active = under 50% inhibition at 10 µM
Interstitial collagenase = target: T1, Interstitial collagenase (Homo sapiens, UniProt P03956); experiment: biochemical; assay type: tissue-based, Rheumatoid synovial fibroblasts;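 further: MMP-1 enzyme inhibition assay using a peptide substrate; in other assays of this panel Not Active means under 50% inhibition at 10 µM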
T1 sequence (P03956 whole entry): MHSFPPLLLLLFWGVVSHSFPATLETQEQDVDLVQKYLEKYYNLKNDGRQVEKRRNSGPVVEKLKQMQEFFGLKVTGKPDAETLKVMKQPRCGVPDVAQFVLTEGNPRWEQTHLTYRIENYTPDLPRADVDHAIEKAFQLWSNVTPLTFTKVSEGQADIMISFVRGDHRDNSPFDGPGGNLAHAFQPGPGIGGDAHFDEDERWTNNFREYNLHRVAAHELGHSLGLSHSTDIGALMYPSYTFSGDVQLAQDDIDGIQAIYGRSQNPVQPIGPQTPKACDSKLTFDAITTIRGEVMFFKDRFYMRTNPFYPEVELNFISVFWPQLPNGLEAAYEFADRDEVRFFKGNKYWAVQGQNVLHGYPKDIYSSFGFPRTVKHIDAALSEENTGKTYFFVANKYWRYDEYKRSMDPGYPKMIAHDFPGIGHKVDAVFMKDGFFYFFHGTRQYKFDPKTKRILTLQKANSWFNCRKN

[1] = DRUGMATRIX: Serotonin (5-Hydroxytryptamine) 5-HT3 radioligand binding (ligand: [3H] GR-65630); assay type: cell membranes, Membrane; conditions: hek293; Not Active = under 50% inhibition at 10 µM
[2] = target: T2, Polyunsaturated fatty acid lipoxygenase ALOX15 (Oryctolagus cuniculus, UniProt P12530); experiment: biochemical; assay type: tissue-based, Reticulocytes; conditions: for IC50: reticulocytes; for pIC50: read-out: IC50;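 on all read-outs here: inhibition of 15-lipoxygenase enzyme activity measured with linoleic acid as the substrate; in other assays of this panel Not Active means under 50% inhibition at 10 µM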
T2 sequence (P12530 whole entry): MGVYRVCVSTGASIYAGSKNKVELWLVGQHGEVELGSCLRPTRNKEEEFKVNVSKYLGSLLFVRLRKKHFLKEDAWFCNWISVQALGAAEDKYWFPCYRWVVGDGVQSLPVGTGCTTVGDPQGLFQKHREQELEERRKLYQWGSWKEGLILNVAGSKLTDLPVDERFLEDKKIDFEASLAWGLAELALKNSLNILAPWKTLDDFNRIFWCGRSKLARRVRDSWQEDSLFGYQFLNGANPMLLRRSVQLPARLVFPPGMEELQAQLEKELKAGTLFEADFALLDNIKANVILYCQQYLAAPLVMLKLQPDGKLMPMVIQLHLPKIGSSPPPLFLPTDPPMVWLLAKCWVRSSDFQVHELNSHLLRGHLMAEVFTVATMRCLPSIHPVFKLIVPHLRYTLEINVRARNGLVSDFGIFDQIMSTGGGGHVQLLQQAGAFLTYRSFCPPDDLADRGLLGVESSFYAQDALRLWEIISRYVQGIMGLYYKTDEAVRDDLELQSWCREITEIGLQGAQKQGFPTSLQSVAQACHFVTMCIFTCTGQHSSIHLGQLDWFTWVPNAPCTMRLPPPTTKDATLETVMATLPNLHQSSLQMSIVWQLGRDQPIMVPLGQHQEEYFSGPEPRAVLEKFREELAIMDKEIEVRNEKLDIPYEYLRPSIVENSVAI

[3] = target: Epidermal growth factor receptor (Homo sapiens, UniProt P00533); experiment: DRUGMATRIX: Protein Tyrosine Kinase, EGF Receptor enzyme inhibition (substrate: Poly(Glu:Tyr)); assay type: cell-based, Insect cells; conditions: Not Active = under 50% inhibition at 10 µM; for IC50: insect cells
Chain of Epidermal growth factor receptor (P00533 whole entry): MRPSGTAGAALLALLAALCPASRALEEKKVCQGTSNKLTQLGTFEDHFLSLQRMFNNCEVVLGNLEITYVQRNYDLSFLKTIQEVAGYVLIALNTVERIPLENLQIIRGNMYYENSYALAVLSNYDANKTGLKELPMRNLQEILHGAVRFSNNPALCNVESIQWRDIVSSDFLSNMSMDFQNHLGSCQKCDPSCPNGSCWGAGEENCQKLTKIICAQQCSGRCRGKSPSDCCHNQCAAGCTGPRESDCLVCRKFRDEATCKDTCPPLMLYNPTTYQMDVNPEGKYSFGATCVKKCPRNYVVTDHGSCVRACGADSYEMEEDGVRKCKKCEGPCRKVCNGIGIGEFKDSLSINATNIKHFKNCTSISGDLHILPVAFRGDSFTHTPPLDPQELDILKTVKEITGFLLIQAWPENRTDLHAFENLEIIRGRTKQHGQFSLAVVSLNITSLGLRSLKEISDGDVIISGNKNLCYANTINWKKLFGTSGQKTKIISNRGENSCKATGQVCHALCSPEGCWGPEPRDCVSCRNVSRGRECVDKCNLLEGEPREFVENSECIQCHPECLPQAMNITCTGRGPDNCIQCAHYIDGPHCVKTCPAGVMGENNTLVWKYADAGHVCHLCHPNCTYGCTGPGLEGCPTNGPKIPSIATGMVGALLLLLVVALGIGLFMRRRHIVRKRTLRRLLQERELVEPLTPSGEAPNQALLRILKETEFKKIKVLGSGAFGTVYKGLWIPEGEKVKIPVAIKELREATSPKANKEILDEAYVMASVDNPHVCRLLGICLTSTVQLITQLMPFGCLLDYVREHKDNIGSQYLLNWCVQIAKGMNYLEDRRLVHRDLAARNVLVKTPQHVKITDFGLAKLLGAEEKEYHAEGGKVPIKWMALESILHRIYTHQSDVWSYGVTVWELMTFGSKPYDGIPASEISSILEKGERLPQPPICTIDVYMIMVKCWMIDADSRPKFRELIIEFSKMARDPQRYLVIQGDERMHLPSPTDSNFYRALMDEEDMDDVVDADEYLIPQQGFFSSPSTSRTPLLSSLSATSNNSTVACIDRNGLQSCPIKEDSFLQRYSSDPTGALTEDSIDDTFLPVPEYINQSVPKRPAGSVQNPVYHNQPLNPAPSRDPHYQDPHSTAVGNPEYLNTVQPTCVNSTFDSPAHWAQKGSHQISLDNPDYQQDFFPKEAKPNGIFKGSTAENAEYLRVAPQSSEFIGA

Chain of Adenosine receptor A2a (P29274 whole entry): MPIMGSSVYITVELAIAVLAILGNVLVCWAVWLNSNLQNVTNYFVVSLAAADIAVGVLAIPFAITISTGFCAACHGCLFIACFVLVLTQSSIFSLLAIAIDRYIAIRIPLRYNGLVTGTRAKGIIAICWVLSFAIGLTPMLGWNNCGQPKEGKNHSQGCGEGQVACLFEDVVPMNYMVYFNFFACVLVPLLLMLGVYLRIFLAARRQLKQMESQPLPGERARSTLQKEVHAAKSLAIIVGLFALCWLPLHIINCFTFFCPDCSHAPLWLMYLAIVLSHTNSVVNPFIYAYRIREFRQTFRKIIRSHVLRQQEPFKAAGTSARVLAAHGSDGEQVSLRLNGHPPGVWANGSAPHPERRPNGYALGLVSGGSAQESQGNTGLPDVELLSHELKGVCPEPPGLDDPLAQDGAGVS

SMILES	IC50 (Adenosine receptor A2a)	IC50 (Interstitial collagenase)	IC50 [1]	Ki [1]	IC50 [2]	IC50 [3]	pIC50 [2]	pIC50 ([3]; read-out: IC50)
C=CCc1ccc(O)c(OC)c1 [EUGENOL]	Not Active	Not Active	Not Active	Not Active	Not Active	Not Active	–	–
COc1ccc2[nH]cc(CCNC(C)=O)c2c1 [MELATONIN]	Not Active	Not Active	Not Active	Not Active	Not Active	Not Active	–	–
N=C(N)NC(=O)Cc1c(Cl)cccc1Cl [GUANFACINE]	Not Active	Not Active	Not Active	Not Active	Not Active	Not Active	–	–
COc1cc([C@@H]2c3cc4c(cc3[C@@H](O[C@@H]3O[C@@H]5CO[C@@H](C)O[C@H]5[C@H](O)[C@H]3O)[C@H]3COC(=O)[C@H]23)OCO4)cc(OC)c1O [ETOPOSIDE]	Not Active	Not Active	Not Active	Not Active	–	Not Active	5.50	–
CC(C(=O)O)c1cccc(Oc2ccccc2)c1 (stereo not drawn) [FENOPROFEN]	Not Active	Not Active	Not Active	Not Active	Not Active	Not Active	–	–
O=C(O)CCNC(=O)c1ccccc1 [BETAMIPRON]	Not Active	Not Active	Not Active	Not Active	Not Active	Not Active	–	–
C#C[C@]1(OC(C)=O)CC[C@H]2[C@@H]3CCC4=C[C@@H](OC(C)=O)CC[C@@H]4[C@H]3CC[C@@]21C [ETHYNODIOL DIACETATE]	Not Active	Not Active	Not Active	Not Active	Not Active	Not Active	–	–
CN1[C@@H]2CC[C@H]1C[C@@H](OC(=O)C(CO)c1ccccc1)C2 (stereo partly drawn) [ATROPINE]	Not Active	Not Active	Not Active	Not Active	Not Active	Not Active	–	–
Oc1cccc(O)c1O [PYROGALLOL]	Not Active	Not Active	Not Active	Not Active	–	–	5.67	5.91
O=C/C=C/c1ccccc1	Not Active	Not Active	Not Active	Not Active	Not Active	Not Active	–	–
CN/C(=N\CCSCc1nc[nH]c1C)NC#N [CIMETIDINE]	Not Active	Not Active	Not Active	Not Active	Not Active	Not Active	–	–
C#CC1(O)CC[C@H]2[C@@H]3CCC4=CC(=O)CC[C@@H]4[C@H]3CC[C@@]21CC (stereo partly drawn) [NORGESTREL]	Not Active	Not Active	Not Active	Not Active	Not Active	Not Active	–	–
CC[C@H]1CN2CCc3cc(OC)c(OC)cc3[C@@H]2C[C@@H]1C[C@H]1NCCc2cc(OC)c(OC)cc21 [EMETINE]	Not Active	Not Active	Not Active	Not Active	Not Active	Not Active	–	–
